# In US12415145B2, “Compositions that contain lipophilic plant material and surfactant, and related methods” (priority 2019, dated 2025):
# Tests used:
# [1] = Solubility in mineral oil; settings: under certain conditions
# Source text: (§1) Another example of a processing step is a step of combining a liquid that contains target compound with anti-solvent. When a target compound is contained in a liquid, e.g., an organic solvent or water (together, “solvents”), an anti-solvent may be used to reduce the capacity of the solvent to contain the target compound, thereby supersaturating the solvent with the target compound. […] The use of an antisolvent can increase the efficiency of purification of a target compound by increasing the saturation of one or more target compounds in a solvent to which the target compounds are added or present. The antisolvent occupies the binding potential of a primary solvent for a target compound, thereby reducing the ability of the primary solvent to contain (e.g., dissolve) the target compound.
# [2] = Solubility in water; type: physicochemical
# Source text: The solubility of cannabinoid target compounds in water can be substantially affected by pH and by temperature. […] At a temperature of 70 degrees Celsius or higher, and pH of 10 or higher, the solubility of CBDA in water is over 20 milligrams per milliliter. Conversely, at a temperature of 4 degrees Celsius or lower and pH 4 of or lower, the solubility of CBDA in water is below 20 micrograms per milliliter. Consequently, a process of washing a plant extract composition that contains CBDA with acidified water having a low temperature can be effective to remove hydrophilic components from the plant extract composition, without removing much CBDA from the plant extract composition.
# [3] = Solubility in high-KB amide surfactant (DMDA / Met10u)
# Source text: as §1
# As an alternative to an “oiling-out” technique followed by a crystallization step, target compound dissolved in an aqueous solution (at high temperature and alkaline pH) can be separated from the aqueous solution by causing the target compound to directly form a separate solid phase such as crystals within the solution, i.e., to “crystallize out” of the solution, without an “oiling-out” step. Depending on the composition of the aqueous solution, e.g., if the aqueous solution contains a sufficiently high concentration and purity of dissolved target compound, the target compound may be caused to form crystals directly by reducing pH and temperature of the aqueous solution. […] A method as described may include adding surfactant (e.g., ninol CAA) or an oil or a solvent or additive that encourages crystallization or alternatively, oiling out.
# [4] = Thermal stability (decarboxylation); type: physicochemical; settings: saturated solution of CBDA in Met10u
# Experimental: A saturated solution of CBDA in Met10u is prepared at 30C or preferably at 60C or higher, up to 100C or higher but below 130C. At a temperatures that is at least 130C, CBDA begins to lose its carboxylic moiety (decarboxylation) and become CBD. At temperatures above 130C CBD, not CBDA, could be separated if the desired end product is CBD.
Compound,solubility in mineral oil [1],"solubility of CBDA in water ([2]; temperature of 4 degrees Celsius or lower, pH 4 or lower)","solubility of CBDA in water ([2]; temperature of 70 degrees Celsius or higher, pH of 10 or higher)",solubility of CBDA in Met10u ([3]; at 60C),solubility in DMDA ([3]; at 70C),solubility of CBDA in Met10u ([3]; at OC),temperature at which CBDA begins to lose its carboxylic moiety (decarboxylation) and become CBD [4],fraction of dissolved water in the high KB surfactant ([3]; water dissolved in surfactant of plant extract composition)
C=C(C)[C@@H]1CCC(C)=C[C@H]1c1c(O)cc(CCCCC)c(C(=O)O)c1O [CBDA],about 6 mg/ml,below 20 micrograms per milliliter,over 20 milligrams per milliliter,100%,over 1000 mg/ml,1%,at least 130 C,–
"C=CCCCCCCCC(=O)N(C)C [STEPOSOL™ MET-10U, N, N-dimethyl 9-decenamide]",–,–,–,–,–,–,–,15%
